Results published in patent US6914045B2, “Glycopeptide antibiotics” (Wyeth Holdings Corporation, priority 2001, dated 2005).
≈ marks a conversion by molar mass, not a printed value.

Key:
[1] = tested on: Staphylococcus aureus-SMITH (GC 4543); test: acute lethal infection in mice; type: in vivo; settings: acute lethal infection, female CD-1 mice, intraperitoneal challenge, intravenous 30 min. after infection, 7 day survival
In short: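 Female CD-1 mice (20±2 g) got an intraperitoneal bacterial challenge lethal to untreated controls within 24–48 hr. Compound was dosed intravenously 30 min after infection, five mice per dose. ED50 was calculated from 7-day survival pooled across 3 tests.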

Escherichia coli = test: in vitro antibacterial evaluation, MIC by broth dilution; type: cell-based; settings: 18 hours at 35° C.
Streptococcus sp. = test: as above; type: cell-based; settings: broth dilution, 18 hours at 35° C.
In short: (§1)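 Broth dilution per NCCLS M7-A2 in Mueller-Hinton II medium, inoculum 5×10^5 CFU/mL, antibiotic range 64-0.06 μg/mL. MIC taken as lowest concentration inhibiting growth; Gram-positive panel includes recent clinical isolates resistant to methicillin, penicillin and/or vancomycin.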

Staphylococcus sp. = test: as above; type: cell-based; settings: broth dilution, 18 hours at 35° C.
In short: as §1

Enterococcus sp. = test: as above; type: cell-based; settings: broth dilution, 18 hours at 35° C.
In short: as §1

CCCOc1ccc(COCC2OC(OC3C(CO)OC(Oc4ccc(CC5NC(=O)C(C(C)c6ccccc6)NC(=O)CNC(=O)C(CO)NC(=O)C(C(O)C6CNC(=N)N6C6OC(CO)C(O)C(O)C6O)NC(=O)C(C(O)C6CNC(=N)N6)NC5=O)cc4)C(O)C3O)C(O)C(O)C2O)cc1 (stereo not drawn) [Example 235, Cyclo[glycyl-β-methylphenylalanyl-O-[4-O-[6-O-(4-propoxybenzyl)hexopyranosyl]hexopyranosyl]tyrosyl-3-(2-iminoimidazolidin-4-yl)seryl-3-(3-hexopyranosyl-2-iminoimidazolidin-4-yl)serylseryl]]
median effective dose (ED50), Staphylococcus aureus-SMITH (GC 4543) [1]: 0.59 mg/kg
MIC Escherichia coli (GC 4560) (Escherichia coli): 0.5 to 1 µg/mL
MIC Streptococcus agalactiae (GC 4564) (Streptococcus sp.): 0.25 to 0.5 µg/mL
MIC Streptococcus pneumoniae (ATCC 6301) (Streptococcus sp.): 0.12 µg/mL (≈ 0.0831 µM)
MIC Streptococcus pneumoniae (GC 1894) (Streptococcus sp.): <0.06 µg/mL
MIC Streptococcus pneumoniae (GC 4565) (Streptococcus sp.): <0.06 to 0.12 µg/mL
MIC Streptococcus pyogenes (GC 4563) (Streptococcus sp.): 0.25 µg/mL (≈ 0.173 µM)
MIC Streptococcus pneumoniae (ATCC 6301) (Streptococcus sp.; inoculum 5×10^5 CFU/mL, strain ATCC 6301): 0.12 µg/mL (≈ 0.0831 µM)
MIC Streptococcus pneumoniae (GC 1894) (Streptococcus sp.; inoculum 5×10^5 CFU/mL, strain GC 1894): <0.06 µg/mL
MIC Streptococcus pyogenes (GC 4563) (Streptococcus sp.; inoculum 5×10^5 CFU/mL, strain GC 4563): 0.25 µg/mL (≈ 0.173 µM)
MIC Streptococcus agalactiae (GC 4564) (Streptococcus sp.; inoculum 5×10^5 CFU/mL, strain GC 4564): 0.25 to 0.5 µg/mL
MIC Streptococcus pneumoniae (GC 4565) (Streptococcus sp.; inoculum 5×10^5 CFU/mL, strain GC 4565): <0.06 to 0.12 µg/mL
MIC Coagulase Negative Staphylococcus (GC 4547) (Staphylococcus sp.): 0.5 to 1 µg/mL
MIC Coagulase Negative Staphylococcus (GC 4548) (Staphylococcus sp.): 0.25 to 0.5 µg/mL
MIC Coagulase Negative Staphylococcus (GC 4549) (Staphylococcus sp.): 0.25 to 0.5 µg/mL
MIC Coagulase Negative Staphylococcus (GC 4551) (Staphylococcus sp.): 0.5 to 1 µg/mL
MIC Coagulase Negative Staphylococcus (GC 6257) (Staphylococcus sp.): 0.25 to 0.5 µg/mL
MIC Staphylococcus aureus (ATCC 29213) (Staphylococcus sp.): 0.5 to 1 µg/mL
MIC Staphylococcus aureus (GC 1131) (Staphylococcus sp.): 1 to 2 µg/mL
MIC Staphylococcus aureus (GC 3051) (Staphylococcus sp.): 0.5 to 2 µg/mL
MIC Staphylococcus aureus (GC 3053) (Staphylococcus sp.): 1 to 2 µg/mL
MIC Staphylococcus aureus (GC 4541) (Staphylococcus sp.): 0.5 to 1 µg/mL
MIC Staphylococcus aureus (GC 4542) (Staphylococcus sp.): 0.5 to 2 µg/mL
MIC Staphylococcus aureus (GC 4544) (Staphylococcus sp.): 1 to 2 µg/mL
MIC Staphylococcus aureus (GC 4545) (Staphylococcus sp.): 1 to 2 µg/mL
MIC Staphylococcus aureus-SMITH (GC 4543) (Staphylococcus sp.): 0.5 to 1 µg/mL
MIC Staphylococcus haemolyticus (GC 4546) (Staphylococcus sp.): 0.25 to 0.5 µg/mL
MIC Staphylococcus aureus (ATCC 29213) (Staphylococcus sp.; strain ATCC 29213): 0.5 to 1 µg/mL
MIC Staphylococcus aureus (GC 1131) (Staphylococcus sp.; strain GC 1131): 1 to 2 µg/mL
MIC Staphylococcus aureus (GC 3051) (Staphylococcus sp.; strain GC 3051): 0.5 to 2 µg/mL
MIC Staphylococcus aureus (GC 3053) (Staphylococcus sp.; strain GC 3053): 1 to 2 µg/mL
MIC Staphylococcus aureus (GC 4541) (Staphylococcus sp.; strain GC 4541): 0.5 to 1 µg/mL
MIC Staphylococcus aureus (GC 4542) (Staphylococcus sp.; strain GC 4542): 0.5 to 2 µg/mL
MIC Staphylococcus aureus-SMITH (GC 4543) (Staphylococcus sp.; strain GC 4543): 0.5 to 1 µg/mL
MIC Staphylococcus aureus (GC 4544) (Staphylococcus sp.; strain GC 4544): 1 to 2 µg/mL
MIC Staphylococcus aureus (GC 4545) (Staphylococcus sp.; strain GC 4545): 1 to 2 µg/mL
MIC Staphylococcus haemolyticus (GC 4546) (Staphylococcus sp.; strain GC 4546): 0.25 to 0.5 µg/mL
MIC Coagulase Negative Staphylococcus (GC 4547) (Staphylococcus sp.; strain GC 4547): 0.5 to 1 µg/mL
MIC Coagulase Negative Staphylococcus (GC 4548) (Staphylococcus sp.; strain GC 4548): 0.25 to 0.5 µg/mL
MIC Coagulase Negative Staphylococcus (GC 4549) (Staphylococcus sp.; strain GC 4549): 0.25 to 0.5 µg/mL
MIC Coagulase Negative Staphylococcus (GC 4551) (Staphylococcus sp.; strain GC 4551): 0.5 to 1 µg/mL
MIC Coagulase Negative Staphylococcus (GC 6257) (Staphylococcus sp.; strain GC 6257): 0.25 to 0.5 µg/mL
MIC Enterococcus avium (GC 4558) (Enterococcus sp.): 4 µg/mL (≈ 2.77 µM)
MIC Enterococcus faecalis (ATCC 29212) (Enterococcus sp.): 4 µg/mL (≈ 2.77 µM)
MIC Enterococcus faecalis (GC 2242) (Enterococcus sp.): 4 µg/mL (≈ 2.77 µM)
MIC Enterococcus faecalis (GC 2691) (Enterococcus sp.): 4 µg/mL (≈ 2.77 µM)
MIC Enterococcus faecalis (GC 3059) (Enterococcus sp.): 4 to 8 µg/mL
MIC Enterococcus faecalis (GC 4552) (Enterococcus sp.): 4 µg/mL (≈ 2.77 µM)
MIC Enterococcus faecalis (GC 4553) (Enterococcus sp.): 4 µg/mL (≈ 2.77 µM)
MIC Enterococcus faecalis (GC 4554) (Enterococcus sp.): 4 to 8 µg/mL
MIC Enterococcus faecalis (GC 6189) (Enterococcus sp.): 4 µg/mL (≈ 2.77 µM)
MIC Enterococcus faecium (GC 2243) (Enterococcus sp.): 4 µg/mL (≈ 2.77 µM)
MIC Enterococcus faecium (GC 4556) (Enterococcus sp.): 4 µg/mL (≈ 2.77 µM)
MIC Enterococcus faecium (GC 4557) (Enterococcus sp.): 0.5 to 2 µg/mL
MIC Enterococcus faecalis (ATCC 29212) (Enterococcus sp.; strain ATCC 29212): 4 µg/mL (≈ 2.77 µM)
MIC Enterococcus faecium (GC 2243) (Enterococcus sp.; strain GC 2243): 4 µg/mL (≈ 2.77 µM)
MIC Enterococcus faecalis (GC 4552) (Enterococcus sp.; strain GC 4552): 4 µg/mL (≈ 2.77 µM)
MIC Enterococcus faecalis (GC 4553) (Enterococcus sp.; strain GC 4553): 4 µg/mL (≈ 2.77 µM)
MIC Enterococcus faecalis (GC 4554) (Enterococcus sp.; strain GC 4554): 4 to 8 µg/mL
MIC Enterococcus faecium (GC 4556) (Enterococcus sp.; strain GC 4556): 4 µg/mL (≈ 2.77 µM)
MIC Enterococcus faecium (GC 4557) (Enterococcus sp.; strain GC 4557): 0.5 to 2 µg/mL
MIC Enterococcus avium (GC 4558) (Enterococcus sp.; strain GC 4558): 4 µg/mL (≈ 2.77 µM)
MIC Enterococcus faecalis (GC 6189) (Enterococcus sp.; strain GC 6189): 4 µg/mL (≈ 2.77 µM)
MIC Enterococcus faecalis (GC 2242) (Enterococcus sp.; inoculum 5×10^5 CFU/mL, strain GC 2242): 4 µg/mL (≈ 2.77 µM)
MIC Enterococcus faecalis (GC 2691) (Enterococcus sp.; inoculum 5×10^5 CFU/mL, strain GC 2691): 4 µg/mL (≈ 2.77 µM)
MIC Enterococcus faecalis (GC 3059) (Enterococcus sp.; inoculum 5×10^5 CFU/mL, strain GC 3059): 4 to 8 µg/mL
